Laboratory results reported in patent US12501900B2, “Heterocyclyl pyridazine as fungicidal compounds” (Bayer Aktiengesellschaft, priority 2018, dated 2025).

Columns and labels:
LogP determination = type: physicochemical; conditions: reversed phase HPLC column; method [a]
[1] = test system: Colletotrichum lindemuthianum; test: In vivo preventive test on Colletotrichum lindemuthianum (leaf spot on bean); conditions: 168 h, 500 ppm of active ingredient, preventive spray on bean, evaluated 7 days after inoculation, read-out: efficacy
Procedure: Example: In Vivo Preventive Test on Colletotrichum lindemuthianum (Leaf Spot on Bean)
(§1) • Solvent: 5% by volume of Dimethyl sulfoxide • 10% by volume of Acetone • Emulsifier: 1 μl of Tween® 80 per mg of active ingredient
(§2) The active ingredients were made soluble and homogenized in a mixture of Dimethyl sulfoxide/Acetone//Tween®80 and then diluted in water to the desired concentration.
The young plants of bean were treated by spraying the active ingredient prepared as described above. Control plants were treated only with an aqueous solution of Acetone/Dimethyl sulfoxide/Tween® 80.
After 24 hours, the plants were contaminated by spraying the leaves with an aqueous suspension of Colletotrichum lindemuthianum spores. The contaminated bean plants were incubated for 24 hours at 20° C. and at 100% relative humidity and then for 6 days at 20° C. and at 90% relative humidity.
The test was evaluated 7 days after the inoculation. 0% means an efficacy which corresponds to that of the control plants while an efficacy of 100% means that no disease was observed.

Pyrenophora teres = test: In vivo preventive test on Pyrenophora teres (net blotch on barley); conditions: 240 h, 500 ppm of active ingredient, preventive spray on barley, evaluated 10 days after inoculation, read-out: efficacy
Procedure: Example: In Vivo Preventive Test on Pyrenophora teres (Net Blotch on Barley)
as §1, §2
The young plants of barley were treated by spraying the active ingredient prepared as described above. Control plants were treated only with an aqueous solution of Acetone/Dimethyl sulfoxide/Tween®80.
After 24 hours, the plants were contaminated by spraying the leaves with an aqueous suspension of Pyrenophora teres spores. The contaminated barley plants were incubated for 48 hours at 20° C. and at 100% relative humidity and then for 8 days at 20° C. and at 70-80% relative humidity.
The test was evaluated 10 days after the inoculation. 0% means an efficacy which corresponds to that of the control plants while an efficacy of 100% means that no disease was observed.

[2] = test system: Colletotrichum lindemuthianum; test: Colletotrichum lindemuthianum in vitro cell test; type: cell-based; conditions: 144 h, 20 ppm of active ingredient, liquid culture, 6 days incubation, read-out: efficacy (inhibition of fungal growth)
Procedure: (§3) Example: Colletotrichum lindemuthianum In Vitro Cell Test • Solvent: DMSO • Culture medium: 14.6 g anhydrous D-glucose (VWR), 7.1 g Mycological Peptone (Oxoid), 1.4 g granulated Yeast Extract (Merck), QSP 1 liter • Inoculum: spores suspension Fungicides were solubilized in DMSO and the solution used to prepare the required range of concentrations. The final concentration of DMSO used in the assay was ≤1%. A spore suspension of C. lindemuthianum was prepared and diluted to the desired spore density. Fungicides were evaluated for their ability to inhibit spores germination and mycelium growth in liquid culture assay. The compounds were added in the desired concentration to the culture medium with spores. After 6 days incubation, fungi-toxicity of compounds was determined by spectrometric measurement of mycelium growth. Inhibition of fungal growth was determined by comparing the absorbance values in wells containing the fungicides with the absorbance in control wells without fungicides.

Alternaria brassicae = test: In vivo preventive test on Alternaria brassicae (leaf spot on radish or cabbage); conditions: 144 h, 500 ppm of active ingredient, preventive spray on radish or cabbage, evaluated 6 days after inoculation, read-out: efficacy
Procedure: Example: In Vivo Preventive Test on Alternaria brassicae (Leaf Spot on Radish or Cabbage)
as §1, §2
The young plants of radish or cabbage were treated by spraying the active ingredient prepared as described above. Control plants were treated only with an aqueous solution of Acetone/Dimethyl sulfoxide/Tween® 80.
After 24 hours, the plants were contaminated by spraying the leaves with an aqueous suspension of Alternaria brassicae spores. The contaminated radish or cabbage plants were incubated for 6 days at 20° C. and at 100% relative humidity.
The test was evaluated 6 days after the inoculation. 0% means an efficacy which corresponds to that of the control plants while an efficacy of 100% means that no disease was observed.

Septoria tritici [3] = test: Septoria tritici in vitro cell test; type: cell-based; conditions: Zymoseptoria tritici, 168 h; 20 ppm of active ingredient; liquid culture, 7 days incubation; read-out: efficacy (inhibition of fungal growth)
Procedure: Example: Septoria tritici In Vitro Cell Test • Solvent: DMSO • Culture medium: 14.6 g anhydrous D-glucose (VWR), 7.1 g Bacteriological Peptone (Oxoid), • 1.4 g granulated Yeast Extract (Merck), QSP 1 liter • Inoculum: spore suspension Fungicides were solubilized in DMSO and the solution used to prepare the required range of concentrations. The final concentration of DMSO used in the assay was ≤1%. A spore suspension of Septoria tritici was prepared and diluted to the desired spore density. Fungicides were evaluated for their ability to inhibit spore germination and mycelium growth in liquid culture assay. The compounds were added in the desired concentration to the culture medium with spores. After 7 days incubation, fungi-toxicity of compounds was determined by spectrometric measurement of mycelium growth. Inhibition of fungal growth was determined by comparing the absorbance values in wells containing the fungicides with the absorbance in control wells without fungicides.

Botrytis cinerea = test: In vivo preventive test on Botrytis cinerea (grey mould); conditions: 500 ppm of active ingredient, preventive spray on gherkin or cabbage, evaluated 4 to 5 days after inoculation, read-out: efficacy
Procedure: Example: In Vivo Preventive Test on Botrytis cinerea (Grey Mould)
as §1, §2
The young plants of gherkin or cabbage were treated by spraying the active ingredient prepared as described above. Control plants were treated only with an aqueous solution of Acetone/Dimethyl sulfoxide/Tween® 80.
After 24 hours, the plants were contaminated by spraying the leaves with an aqueous suspension of Botrytis cinerea spores. The contaminated gherkin plants were incubated for 4 to 5 days at 17° C. and at 90% relative humidity. The contaminated cabbage plants were incubated for 4 to 5 days at 20° C. and at 100% relative humidity.
The test was evaluated 4 to 5 days after the inoculation. 0% means an efficacy which corresponds to that of the control plants while an efficacy of 100% means that no disease was observed.

Septoria tritici [4] = test: In vivo preventive test on Septoria tritici (leaf spot on wheat); conditions: Zymoseptoria tritici, in Triticum aestivum; 500 ppm of active ingredient; preventive spray on wheat; evaluated 19 days after inoculation; read-out: efficacy
Procedure: Example: In Vivo Preventive Test on Septoria tritici (Leaf Spot on Wheat)
as §1, §2
The young plants of wheat were treated by spraying the active ingredient prepared as described above. Control plants were treated only with an aqueous solution of Acetone/Dimethyl sulfoxide/Tween®80.
After 24 hours, the plants were contaminated by spraying the leaves with an aqueous suspension of Septoria tritici spores. The contaminated wheat plants were incubated for 72 hours at 17° C. and at 100% relative humidity and then for 15 days at 20° C. and at 90% relative humidity.
The test was evaluated 19 days after the inoculation. 0% means an efficacy which corresponds to that of the control plants while an efficacy of 100% means that no disease was observed.

Alternaria alternata = Alternaria alternata in vitro cell test; type: cell-based; conditions: 120 h, 20 ppm of active ingredient, liquid culture, 5 days incubation, read-out: efficacy (inhibition of fungal growth)
Procedure: as §3, with “Example: Alternaria alternata” for “Example: Colletotrichum lindemuthianum”, “of A. alternata” for “of C. lindemuthianum”, “inhibit spore” for “inhibit spores”, “After 5” for “After 6”

Sphaerotheca fuliginea = test: In vivo preventive test on Sphaerotheca fuliginea (powdery mildew on cucurbits); conditions: Podosphaera fuliginea, 192 h; 500 ppm of active ingredient; preventive spray on gherkin; evaluated 8 days after inoculation; read-out: efficacy
Procedure: Example: In Vivo Preventive Test on Sphaerotheca fuliginea (Powdery Mildew on Cucurbits)
as §1, §2
The young plants of gherkin were treated by spraying the active ingredient prepared as described above. Control plants were treated only with an aqueous solution of Acetone/Dimethyl sulfoxide/Tween® 80.
After 24 hours, the plants were contaminated by spraying the leaves with an aqueous suspension of Sphaerotheca fuliginea spores. The contaminated gherkin plants were incubated for 8 days at 20° C. and at 70-80% relative humidity.
The test was evaluated 8 days after the inoculation. 0% means an efficacy which corresponds to that of the control plants while an efficacy of 100% means that no disease was observed.

COC(=N)c1cc(Cl)nnc1Oc1cccc(C2CC2)c1 [25-01, methyl 6-chloro-3-(3-cyclopropylphenoxy)pyridazine-4-carboximidate] gave a chromatographic logP (LogP determination) of 3.08.
Compound COC(=N)c1cc(Cl)nnc1Oc1cccc(C(F)(F)F)c1 [25-02, methyl 6-chloro-3-[3-(trifluoromethyl)phenoxy]pyridazine-4-carboximidate] has a chromatographic logP (LogP determination) of 3.
With Cc1cc(C(N)=NOCC=Cc2ccc3c(ccn3C)c2)c(Oc2cccc(C(F)(F)F)c2)nn1 [30-01, 6-methyl-N′-[3-(1-methylindol-5-yl)allyloxy]-3-[3-(trifluoromethyl)phenoxy]pyridazine-4-carboxamidine] the chromatographic logP (LogP determination) was 3.92.
Compound Cc1ccc(CC2CON=C(c3cc(C)nnc3Oc3cccc(Cl)c3F)N2)c(Cl)c1 (stereo not drawn) [I-302] has a pest or weed control at 500 ppm [1] of 90 to 100%, a pest or weed control at 500 ppm (Pyrenophora teres) of 90 to 100% and an inhibition at 20 ppm [2] of 90 to 100%. For the same compound, the pest or weed control at 500 ppm (Alternaria brassicae) was 90 to 100%, the inhibition at 20 ppm (Septoria tritici [3]) was 90 to 100% and the pest or weed control at 500 ppm (Botrytis cinerea) was 90 to 100%. For the same compound, the pest or weed control at 500 ppm (Septoria tritici [4]) was 90 to 100%, the inhibition at 20 ppm (Alternaria alternata) was 90 to 100% and the pest or weed control at 500 ppm (Sphaerotheca fuliginea) was 90 to 100%.
